≈ marks a conversion by molar mass, not a printed value.

Consider 23 molecules from ChEMBL document CHEMBL1147683, “Synthesis of new and potent analogues of anti-tuberculosis agent 5-nitro-furan-2-carboxylic acid 4-(4-benzyl-piperazin-1-yl)-benzylamide with improved bioavailability” (Bioorg Med Chem Lett, 2006).

The subject of data set [1] is Mycobacterium tuberculosis. The data set can be described thus: Antituberculosis activity against Mycobacterium tuberculosis. The format is functional.
A short description of data set [2]: Tmax in mouse at 300 mg/kg, po. Format: ADME, organism-based. The arrangement: dose 300 mg/kg, route oral. Particulars: in vivo.
Data set [3] in a line: (§1) Cmax in mouse serum at 300 mg/kg, po. Particulars: serum. The arrangement: dose 300 mg/kg, route oral. Format: ADME, organism-based.
Data set [4] in a line: Half life in mouse serum at 300 mg/kg, po. The arrangement: dose 300 mg/kg, route oral. The format is ADME, organism-based.
The test system of data set [5] is Mus musculus. The data set is described as §1. Particulars: in vivo. The arrangement: dose 300 mg/kg, route oral. The format is ADME, organism-based.

In the case of `O=C(NCc1ccc(N2CCN(Cc3ccccc3)CC2)cc1)c1ccc([N+](=O)[O-])o1`, the MIC90 in data set [1] was found to be 0.0125 µg/mL (≈ 0.0297 µM).
With `O=C(c1ccc([N+](=O)[O-])o1)N1CCc2cc(N3CCSCC3)ccc2C1`, the MIC90 in data set [1] stood at 0.4 µg/mL (≈ 1.07 µM).
With `C=CCOC(=O)N1CCN(c2ccc(CNC(=O)c3ccc([N+](=O)[O-])o3)cc2)CC1`, the MIC90 in data set [1] was 0.5 µg/mL (≈ 1.21 µM).
For the molecule `CC(C)NC(=O)N1CCN(c2ccc(CNC(=O)c3ccc([N+](=O)[O-])o3)cn2)CC1`, the Tmax in data set [2] was found to be 2.5 h. The MIC90 in data set [1] turned out to be 0.56 µg/mL (≈ 1.34 µM). The peak level in data set [3] (Cmax) was 22000 ng/mL. This molecule also showed a half-life in data set [4] of 0.5 h.
As for `CCCNC(=O)N1CCN(c2ccc(CNC(=O)c3ccc([N+](=O)[O-])o3)cc2)CC1`, the time to peak (Tmax) in data set [2] came out at 2.5 h. This molecule yielded an MIC90 in data set [1] of 0.2 µg/mL (≈ 0.481 µM). Also, the highest level in data set [3] (Cmax) was 4800 ng/mL. The same molecule had a half-life in data set [4] of 1.5 h.
With `CC(C)(C)OC(=O)N1CCCN(c2ccc(CNC(=O)c3ccc([N+](=O)[O-])o3)cc2)CC1`, the Tmax in data set [2] amounted to 0.5 h. This molecule yielded an MIC90 in data set [1] of 0.1 µg/mL (≈ 0.225 µM). The concentration in data set [3] peaked (Cmax) at 280 ng/mL. Further, in data set [4], the half-life was 7.5 h.
Regarding `CCCCOC(=O)N1CCN(c2ccc(CNC(=O)c3ccc([N+](=O)[O-])o3)cc2)CC1`, the MIC90 in data set [1] came to 0.05 µg/mL (≈ 0.116 µM).
The same measure, in the same setting: the same measure for `O=C(NCc1ccc(N2CCCN(Cc3ccccc3)CC2)cc1)c1ccc([N+](=O)[O-])o1`: 0.8 µg/mL (≈ 1.84 µM).
On to `CC(C)(C)OC(=O)N1CCN(c2ccc(CNC(=O)c3ccc([N+](=O)[O-])o3)cn2)CC1`, for which the Tmax in data set [2] worked out at 0.5 h. Moreover, the MIC90 in data set [1] is 0.05 µg/mL (≈ 0.116 µM). In data set [3], this molecule displayed a Cmax of 1230 ng/mL. Moreover, the half-life in data set [4] was 2.3 h.
Molecule `CCOC(=O)N1CCN(c2ccc(CNC(=O)c3ccc([N+](=O)[O-])o3)cc2)CC1` had an MIC90 in data set [1] of 0.0062 µg/mL (≈ 0.0154 µM).
As to `CCOC(=O)N1CCCN(c2ccc(CNC(=O)c3ccc([N+](=O)[O-])o3)cc2)CC1`, the MIC90 in data set [1] turned out to be 0.1 µg/mL (≈ 0.24 µM). This MIC90 is about 16-fold higher than that of the molecule before.
Take `CC(C)NC(=O)N1CCCN(c2ccc(CNC(=O)c3ccc([N+](=O)[O-])o3)cc2)CC1`: the Tmax in data set [2] came to 0.5 h. Moreover, the MIC90 in data set [1] was determined as 0.8 µg/mL (≈ 1.86 µM). The same molecule displayed a Cmax in data set [3] of 7400 ng/mL. The molecule further showed a half-life in data set [4] of 2 h.
As to `CC(C)NC(=O)N1CCN(c2ccc(CNC(=O)c3ccc([N+](=O)[O-])o3)cc2)CC1`, in data set [1], the MIC90 stood at 0.8 µg/mL (≈ 1.93 µM).
For the molecule `CCOC(=O)N1CCN(c2ccc(CNC(=O)c3ccc([N+](=O)[O-])o3)cn2)CC1`, the Tmax in data set [2] worked out at 2.5 h. In addition, the MIC90 in data set [1] was 0.05 µg/mL (≈ 0.124 µM). In data set [3], the Cmax came to 6560 ng/mL. This molecule gave a half-life in data set [4] of 0.7 h.
Turning to `O=C(c1ccc([N+](=O)[O-])o1)N1CCc2cc(N3CCN(Cc4ccccc4)CC3)ccc2C1`, the MIC90 in data set [1] was found to be 0.0062 µg/mL (≈ 0.0139 µM).
In the case of `O=C(NCc1ccc(N2CCN(Cc3ccccc3)CC2)nc1)c1ccc([N+](=O)[O-])o1`, in data set [2], the Tmax turned out to be 0.5 h. The molecule further showed an MIC90 in data set [1] of 0.0062 µg/mL (≈ 0.0147 µM). The peak level in data set [3] (Cmax) was 1470 ng/mL. Further, in data set [4], the half-life is 1.3 h.
In turn, `COC(=O)N1CCN(c2ccc(CNC(=O)c3ccc([N+](=O)[O-])o3)cc2)CC1` gave an MIC90 in data set [1] of 0.1 µg/mL (≈ 0.257 µM).
Same read-out and setting: the same measure for `CC(C)(C)OC(=O)N1CCN(c2ccc(CNC(=O)c3ccc([N+](=O)[O-])o3)cc2)CC1`: 0.025 µg/mL (≈ 0.0581 µM).
The same measure, in the same setting: the figure for `CC(C)COC(=O)N1CCN(c2ccc(CNC(=O)c3ccc([N+](=O)[O-])o3)cc2)CC1` is 0.05 µg/mL (≈ 0.116 µM); for `CN1CCN(c2ccc3c(c2)CCN(C(=O)c2ccc([N+](=O)[O-])o2)C3)CC1` it is 0.2 µg/mL (≈ 0.54 µM).
Take `Cl.O=C(c1ccc([N+](=O)[O-])o1)N1CCc2cc(N3CCN(Cc4ccccc4)CC3)ccc2C1`: in data set [2], the Tmax turned out to be 0.5 h. This molecule displayed a Cmax in data set [3] of 736 ng/mL. In addition, the half-life in data set [4] was 3.5 h.
The matching figures for `CN1CCN(c2ccc3c(c2)CCN(C(=O)c2ccc([N+](=O)[O-])o2)C3)CC1.Cl`: 0.5 h, 280 ng/mL and 2 h.
Consider `Cl.O=C(NCc1ccc(N2CCN(Cc3ccccc3)CC2)cc1)c1ccc([N+](=O)[O-])o1`, for which the Cmax in data set [5] was 2240 ng/mL.

By MIC90 is commonly meant an inhibitory concentration at the 90% level, which refers to growth in some studies and to a panel of isolates in others. The low end stands for higher susceptibility, the high end for lower susceptibility. For orientation: Tmax means the time from dosing to the highest level. In general, Cmax refers to the maximum level reached in the sampled fluid or tissue. What is called half-life is the time needed for the level to fall by half in the phase considered. Read a high half-life as slow loss.
